Reference: publication PMC10747602, “Dose Response, Dosimetric, and Metabolic Evaluations of Replacement PFAS Perfluoro-(2,5,8-trimethyl-3,6,9-trioxadodecanoic) Acid (HFPO-TeA)” (Toxics, 2023)
Several values for one entry are separate records, joined by “and”; a condition that tells them apart may be missing. Equal entries are not always repeated.

Columns and labels:
[1] = Hepatocyte metabolic stability (clearance) assay, rat hepatocytes; settings: both, Sprague Dawley, rat, hepatocytes
Method: (§1) Information on the chemicals and materials used in the hepatocyte metabolic work can be found in Supplementary Text S9 and Table S3. In vitro evaluations of hepatocyte metabolic stability were performed in human and rat hepatocytes, as previously described. Briefly, pooled, cryopreserved hepatocyte suspensions were thawed, assessed for viability, and then diluted in William’s medium E containing dexamethasone and cell maintenance cocktail B to achieve a cell density of 50,000 cells/100 µL. The assay was started by adding hepatocyte suspensions to wells of 96-well polypropylene plates containing an equal volume of media with 2 µM of analyte (final assay concentration: 1 µM). Plates were placed in a 37 °C cell culture incubator (5% CO2) on a shaker set to 200 rpm. Time points assessed were T0, T15, T30, T60, T120, and T240 min. At each time point, the plates were removed from the shaker and the incubates were crashed with an equal volume of ice-cold ACN containing 1.2% FA and 16 ng/mL of ^13C3 -HFPO-DA. After chilling and centrifugation at 4122× g, the supernatants were transferred to new collection plates and stored at −70 °C until analysis for the parent compound on the Waters instrumentation described below. Immediately prior to analysis, samples were thawed, vortexed, and centrifuged at 4200× g, and then diluted 1:4 in 95:5 H2O/ACN with 2.5 mM of ammonium acetate. Negative controls, including no cell controls and metabolically inactivated hepatocytes, were run concurrently to assess the chemical stability over the time course.
(§2) Intrinsic clearance (Clint; hepatic clearance) calculations are detailed in Supplementary Text S9 [57].
(§3) Targeted, quantitative analysis of in vitro hepatocyte metabolic stability and plasma protein binding assay samples was conducted on a Waters Xevo-TQS micro mass spectrometer (Waters, Milford, MA, USA) ultra-high-performance liquid chromatography tandem mass spectrometry system (UPLC-MS/MS), modified with a PFAS analysis kit. Samples were analyzed in negative ion mode with UniSpray ionization. A CORTECS T3 column (Waters CORTECS, 3 × 100 mm, particle size 2.7 µm) was used for chromatographic separation with a flow rate of 0.6 mL/min and a temperature of 55 °C. Gradient elution was used with eluent A (95:5 H2O/ACN) and eluent B (95:5 ACN/H2O) with 2.5 mM of ammonium acetate. The gradient is available in Table S11. Additional details for MS parameters are found in Table S12 and monitored transitions are found in Table S13.
(§4) Table S2: Data processing parameters used with Sciex MarkerView 1.3.1.
(§5) Support ing Text S9: Hepatocyte Metabolic Stability Assay Materials, Chemicals, and Calculations
(§6) Pooled human and rat cryopreserved primary hepatocyte suspensions were both obtained from
(§7) BioIVT, a US Food and Drug Administration-licensed and inspected donor center, and produced using
(§8) non-transplantable tissue.
(§9) William’s E media, dexamet hasone (98% pure), and cell maintenance cocktail B were obtained from
(§10) Thermo Fisher Scientific (Waltham, MA, USA), the OptiThaw hepatocyte kit from Sekisui/Xenotech
(§11) (Tokyo, Japan), and the trypan blue s (Sekisui/ Xenotech, Tokyo, Japan) and the trypan blue solution from […]

[2] = Hepatocyte metabolic stability (clearance) assay, human hepatocytes; settings: human, hepatocytes, 1000 nM
Method: as §1, §2, §3, §4, §5, §6, §7, §8, §9, §10, §11

[3] = Ultracentrifugation plasma protein binding assay, rat plasma; type: in vitro ADME; settings: both sexes, Sprague Dawley, rat, rat plasma, 10000 nM
Method: (§12) Information on the chemicals and materials used in the plasma protein binding work can be found in Supplementary Text S10 and Table S3. Human and rodent plasma were evaluated for plasma protein binding using ultracentrifugation, as previously described. Working solutions of 3 mM of HFPO-DA, HFPO-TA, and HFPO-TeA were prepared separately in ethanol, with each working solution containing 3 mM of testosterone (Sigma-Aldrich; ≥98% pure) as a reference compound for assay performance. An aliquot of each stock solution (13.3 µL) was added to separate 15 mL tubes with 3.987 mL of plasma for a final assay concentration of 10 µM. The plasma solutions were incubated at 37 °C and 125 rpm for 60 min. One-hour stability samples (T60 min) were drawn in triplicate and diluted in four volumes of plasma ultrafiltrate. Aliquots (1 mL) from each plasma solution were drawn in triplicate and transferred to polycarbonate tubing. These samples underwent ultracentrifugation (Beckman OptimaMax; Beckman Coulter Inc., Brea, CA, USA) at 850,000× g for 4 h at 37 °C.
(§13) The remaining plasma solutions were returned for incubation at 37 °C and 125 rpm for an additional 4 h. Five-hour stability samples (T300 min) were then drawn in triplicate and diluted in four volumes of plasma ultrafiltrate. After ultracentrifugation, the aqueous fraction (AF) was collected by transferring the supernatant to a new tube and diluting in an equal volume of plasma for matrix matching. All samples were combined with 3 volumes of ice-cold ACN containing 16 ng/mL of ^13C3-HFPO-DA and 16 ng/mL of ^13C-Testosterone (Cambridge Isotope Laboratories; 98% pure). Samples were vigorously mixed, stored for 10 min at −20 °C, and then centrifuged at 12,000× g for 10 min at 4 °C. Supernatants were collected then stored at −70 °C prior to analysis.
(§14) Fraction unbound (fu) in plasma (fup) and percent stability calculations are detailed in Supplementary Text S10. Hepatic clearance, the fu in blood (fub) (fu in plasma adjusted for blood:plasma partitioning), and renal clearance were used to derive the steady-state concentration (Css) of each compound that will be used for in vitro–in vivo extrapolation (IVIVE). Renal clearance was calculated using the glomerular filtration rate (a species-dependent constant) and the fub. The Css calculation is detailed in Supplementary Text S11.
(§15) The gradient is available in Table S11. […]
(§16) Chemical stability in plasma was assessed
(§17) (F) Percent Stability = T300minutesT60minutes∗100

[4] = system: Sprague Dawley rodent plasma; test: as above; type: in vitro ADME; settings: rat plasma, 10000 nM
Method: as §12, §13, §14, §15, §16, §17

[5] = Ultracentrifugation plasma protein binding assay, human plasma; type: in vitro ADME; settings: both sexes, human
Method: as §12, §13, §14, §15, §16, §17

Human plasma = test: as above; type: in vitro ADME; settings: for Experimental fup (average fraction unbound in plasma): 10 µM, ultracentrifugation; for Average Stability (T5hr/ T1hr) / Aqueous Fraction concentration / Fraction Unbound in plasma (fup) / Stability (T5hr/ T1hr) / Time 1 hr concentration / Time 5 hr concentration: 10000 nM; for Average Stability (T5hr/ T1hr): 37 °C; for Aqueous Fraction concentration: after ultracentrifugation; for Aqueous Fraction concentration / Fraction Unbound in plasma (fup) / Stability (T5hr/ T1hr) / Time 1 hr concentration / Time 5 hr concentration: replicates A-C
Method: as §12, §13, §14, §15, §16, §17

CC(C)NCC(O)COc1cccc2ccccc12 (stereo not shown) [Propranolol, reference compound]
half-life at 1000 nM [1]: 0.261 h
half-life at 1 µM ([2]; HT-Background Half Life, heat treated human hepatocytes): 12.3 h
half-life at 1 µM ([2]; Half Life, human hepatocytes, time in min): 1.63 h

C[C@]12CC[C@H]3[C@@H](CCC4=CC(=O)CC[C@@]43C)[C@@H]1CC[C@@H]2O [Testosterone]
fraction unbound at 4 h, 10 µM ([3]; Rep A, read-out: Fraction Unbound in plasma (fup), Rep A): 0.0553
fraction unbound at 4 h, 10 µM ([3]; Rep B, read-out: Fraction Unbound in plasma (fup), Rep B): 0.0589
fraction unbound at 4 h, 10 µM ([3]; Rep C, read-out: Fraction Unbound in plasma (fup), Rep C): 0.0507
fraction unbound at 4 h, 10 µM ([3]; ultracentrifugation, read-out: Average fup (fraction unbound in plasma)): 0.0549
Average Stability (T5hr/ T1hr) [4]: 1.0825 and 0.9487 and 1.0344
Aqueous Fraction, Rep A ([4]; Rep A): 659.2 nM and 463 nM and 481 nM
Fraction Unbound in plasma (fup), Rep A ([4]; Rep A): 0.05346 and 0.05095
Stability (T5hr/ T1hr), Rep A ([4]; Rep A): 1.0325 and 0.8708 and 1.0149
Time 1 hr concentration, Rep A ([4]; Rep A): 11.552 µM and 9.9536 µM and 9.3008 µM
Time 5 hr concentration, Rep A ([4]; Rep A): 11.928 µM and 8.6672 µM and 9.4392 µM
Aqueous Fraction, Rep B ([4]; Rep B): 678.4 nM and 491 nM and 472 nM
Fraction Unbound in plasma (fup), Rep B ([4]; Rep B): 0.0545
Stability (T5hr/ T1hr), Rep B ([4]; Rep B): 1.1304 and 0.9004
Time 1 hr concentration, Rep B ([4]; Rep B): 10.184 µM and 10.0112 µM and 8.783 µM
Time 5 hr concentration, Rep B ([4]; Rep B): 11.512 µM and 9.0136 µM
Aqueous Fraction, Rep C ([4]; Rep C): 681.6 nM and 481.28 nM and 439 nM
Fraction Unbound in plasma (fup), Rep C ([4]; Rep C): 0.04493 and 0.05209
Stability (T5hr/ T1hr), Rep C ([4]; Rep C): 1.0845 and 1.0750 and 1.0540
Time 1 hr concentration, Rep C ([4]; Rep C): 12.408 µM and 9.964 µM and 7.99 µM
Time 5 hr concentration, Rep C ([4]; Rep C): 13.456 µM and 10.7112 µM and 8.4216 µM
Average fup (fraction unbound in plasma) ([4]; ultracentrifugation): 0.0510 and 0.0515
fraction unbound at 4 h, 10 µM ([5]; plasma, 10 µM, ultracentrifugation, read-out: Experimental fup (average fraction unbound in plasma)): 0.048
fraction unbound at 4 h, 10 µM ([5]; pooled human plasma, 10000 nM, replicates A-C, read-out: Fraction Unbound in plasma (fup)): 0.0537
Experimental fup (average fraction unbound in plasma) (Human plasma): 0.0417
Experimental fup (average fraction unbound in plasma) (Human plasma; listed as Tesosterone): 0.0359
Average Stability (T5hr/ T1hr) (Human plasma): 1.1059 and 0.9812
Average Stability (T5hr/ T1hr) (Human plasma; listed as Tesosterone): 1.0002
Aqueous Fraction concentration (Human plasma): 546.88 nM and 521.28 nM and 574.4 nM and 376.32 nM and 357.12 nM and 381.76 nM
Aqueous Fraction concentration (Human plasma; listed as Tesosterone): 293.12 nM and 277.12 nM and 292.16 nM
Fraction Unbound in plasma (fup) (Human plasma): 0.0442 and 0.0462 and 0.0429 and 0.0406 and 0.0415
Stability (T5hr/ T1hr) (Human plasma): 0.9564 and 1.2770 and 1.0843 and 0.9797 and 0.9599 and 1.0039
Time 1 hr concentration (Human plasma): 10.6456 µM and 9.2344 µM and 11.4704 µM and 8.9504 µM and 9.1664 µM and 9.1736 µM
Time 5 hr concentration (Human plasma): 10.1816 µM and 11.792 µM and 12.4368 µM and 8.7688 µM and 8.7984 µM and 9.2096 µM
Fraction Unbound in plasma (fup) (Human plasma; listed as Tesosterone): 0.0369 and 0.0320 and 0.0386
Stability (T5hr/ T1hr) (Human plasma; listed as Tesosterone): 0.9569 and 1.1423 and 0.9014
Time 1 hr concentration (Human plasma; listed as Tesosterone): 8.3008 µM and 7.576 µM and 8.3888 µM
Time 5 hr concentration (Human plasma; listed as Tesosterone): 7.9432 µM and 8.6544 µM and 7.5616 µM
